Entries after “also recorded” stand apart in the source; their conditions may differ.
Key:
[1] = tested on: B16-F10-Ova melanoma tumors; assay: melanoma model, cell-free scaffold implanted adjacent to tumor; assay type: in vivo, mouse; conditions: for T cell recruitment and tumor clearance compared to control scaffolds: chemokine in full scaffold
Text: 2-5×10^5 (2-5×105) B16F10-OVA tumor cells were subcutaneously injected into right or both (in the contralateral tumor model) right and left flanks of C57BL/6J WT mice (6-8 weeks old). These melanoma-derived cells are transfected to express chicken ovalbumin peptide (OVA)34. Five days after tumor cell injection, scaffolds were surgically implanted subcutaneously into the same approximate region of the tumors in both flanks. For cell-loaded studies, ex vivo activated OT-I T cells were transferred either intravenously using retro-orbital injections (100 microliters [μL] per animal) or implantable scaffolds at the same day. Tumor size was assessed over time using a digital caliber until day 22 at which animals were sacrificed and the tumor, draining lymph nodes, and spleen were extracted. Tumor mass was measured using a digital balance before digesting the tumor tissue for flow cytometry or fixing it for tissue sectioning. Tumors were digested by incubating in collagenase and DNase I (50 micrograms/mL [μg/mL]) at 37° C. for 15 min. These enzymes were inactivated with ethylenediamine tetra-acetic acid (EDTA) (20 microliters/mL [μL/mL] of solution). […] Tissue sections were imaged by a fluorescence microscope (KEYENCE™ BZ-X800, Osaka, Japan).
Typically, mice received subcutaneous injections of B16-F10 cells to their right flank followed by the scaffold implantation adjacent to the tumor once it was palpable. Without any further treatment animal's health was monitored and were euthanized 17 days afterwards. […]
2-5×10^5 B16F10-OVA or B16F10 tumor cells were subcutaneously injected into right or both (in the contralateral tumor model) right and left flanks of wild-type C57BL/6J WT mice (6-8 weeks old, Jackson Lab). […] Tumor size was assessed over time using a digital caliper until day 22 at which animals were sacrificed and the tumor, draining lymph nodes, and spleen were extracted.
Tumor masses were measured using a digital balance before digesting the tumor tissue for flow cytometry or fixing it for tissue sectioning. […]

[2] = tested on: formation of regulatory T cells (Treg), Foxp3 expression; assay: in vitro inhibition of Treg formation (2D); assay type: cell-based, mouse
Description: (§1) For Treg formation experiments CD4+ T cells were purified from mouse spleen as mentioned above. Cells were then either activated on scaffolds or on anti-CD3e antibody (8 mg/ml) coated plates with the anti-CD28 antibody (2 mg/ml) supplemented medium. At the same time transforming growth factor-beta (TGF-beta; TGF-β) (15 ng/ml) was added to the media. After four days regulatory T cells were removed and stained with antibodies for flow cytometry analysis.
as §1, with “μg/mL)” for “mg/ml)”, “TGF-β” for “transforming growth factor-beta (TGF-beta; TGF-β)”, “ng/mL)” for “ng/ml)”, “removed, fixed, permeabilized,” for “removed”, “cytometric analysis of Foxp3 expression.” for “cytometry analysis.”

[3] = biological target: TGF-beta receptor (TβR); conditions: reported IC50 value (FIG. 13B); cited from earlier work
[4] = tested on: B16F10-OVA tumor cells; assay: Transwell migration assay of tumor cells; assay type: cell-based, mouse; conditions: hydrogels containing CCL21; 8 h
Description: The migration assay to evaluate the role of chemokines on recruitment of T cells and melanoma cancer in the presence and absence of magnetic particles was performed using regular Transwell migration (Majedi, F. S. et al. Cytokine Secreting Microparticles Engineer the Fate and the Effector Functions of T-Cells. Adv. Mater. 30, 1703178 (2018)). […]
The migration assay to evaluate the role of chemokines on recruitment of T cells and melanoma cells in the presence and absence of chemokine-functionalized scaffolds was performed using regular Transwell migration as reported. […]

## CXCL12: stromal cell-derived factor 1 chemokine, used in the scaffold instead of CCL21
[1]
  T cell recruitment and tumor clearance compared to control scaffolds: successfully recruited T cells and helped clear tumors

## Cc1cccc(-c2nn3c(c2-c2ccnc4ccc(C(N)=O)cc24)CCC3)n1 [LY2157299, galunisertib]
[2]; 2D, aAPCs, soluble TGF-β in media, soluble TGFbi 10 uM or PLGA NPs with equivalent amount
  Treg formation suppressed: about 40%
[2]; at 1 nM concentrations, versus SB505124
  potency in suppressing Treg formation: about twice as potent as SB505124

## Cc1cccc(-c2[nH]c(C(C)(C)C)nc2-c2ccc3c(c2)OCO3)n1 [SB505124]
[3]
  IC50: 129 nM

B1: CCL21: chemokine (C-C motif) ligand 21, chemoattractant mixed into the scaffold (protein)
chain: SDGGGQDCCLKYSQKKIPYSIVRGYRKQEPSLGCPIPAILFSPRKHSKPELCANPEEGWVQNLMRRLDQPPAPGKQSPGCRKNRGTSKSGKKGKGSKGCKRTEQTQPSRG
[4]
  recruitment of tumor cells (chemotaxis): no significant effect
[1]; CCL21 versus SDF-1a (CXCL12), otherwise identical scaffolds
  recruitment of CD8+ T cells by chemokine released from scaffold: favors recruitment of CD8+ T cells more than SDF-1α; also recorded: favored recruitment of CD8+ T cells and disfavored CD4+ T cells as compared with CXCL12
[1]
  T cell recruitment and tumor clearance compared to control scaffolds: successfully recruited T cells and helped clear tumors
